The target of experiment [1] is T1, human recombinant adrenergic β3 receptor (Homo sapiens, UniProt P13945).
T1 construct: host or cells: CHO-K1
The experiment is described as follows: Cyclic AMP accumulation assay (HTRF), agonist mode. In kind it is cell-based. Conditions: agonistic activity at β3-adrenoceptor, CHO-K1 β3 cells, cAMP. The protocol: (Cyclic Amp Accumulation Assay)
Functional response of cells (agonistic or antagonistic) to the test compounds was tested by measurement of cyclic AMP formation. Therefore cyclic AMP was quantitatively determined by HTRF® (Homogeneous Time-Resolved Fluorescence) technology (Cisbio International) using a stable cell line CHO-K1 β3 expressing the human recombinant adrenergic β3 receptor (Euroscreen).
The CHO-K1 β3 cell line was maintained in Ham's F12 medium containing 10% fetal bovine serum, 400 μg/ml geneticin (G418), 100 U/mL penicillin and 100 μg/mL streptomycin (all PAA) at 37° C. and 5% CO2. Cells in mid-log phase, grown in media without antibiotics during 18 h prior to the experiment, were detached by gentle flushing with 2 ml PBS-EDTA pH 7.5 (Cambrex) and resuspended in 8 mL of medium without antibiotics. Cells were then counted, centrifuged in a 30 mL PP tube (Corning) at 2000 rpm for 1 min and resuspended in HBSS/20 mM HEPES/0.05% BSA buffer (all PAA) including 1 mM IBMX (Sigma). Cells were then dispensed at 3.2×10^5−3.6×10^5 cells/well in black 96-half well microtiter plates (Corning). After addition of the test compounds for dose response curves the plates were incubated for 10 min at room temperature.
cAMP HTRF® Kit reagents were then added as recommended by the manufacturer and plates were sealed with plate sealer. After 1 hour of incubation the plates were read in a Tecan Ultra Reader using the “multilabeling” option of Tecan Xfluor4 software with the following parameters, excitation filter 320 nm, mirror dichroic2, lag time 150 μs, integration time 500 μs, number of flashes 10, optimal gain and z-position. For measurement 1 an emission filter at 620 nm and for measurement 2 an emission filter at 665 nm was chosen.
EC50 value calculation for the agonist assay and IC50 value calculation for the antagonist assay, respectively, were performed with the MS Excel Solver function based on a four-parameter fit.

The test system of experiment [2] is β3 over β1- and β2-adrenoceptors. Description: Overall selectivity A×B from radioligand binding (β1, β2, β3) and functional β3 assay. More on the design: species or system human. The note with it: A=Ki(β1)/Ki(β3); B=Ki(β2)/EC50(β3); overall = A multiplied by B. As to the method:
Selectivity for β3 over the other two adrenoceptors was thus defined as:
A) selectivity factor for β3 over β1=Ki(β1)/Ki(β3);
B) selectivity factor for β3 over β2=Ki(β2)/EC50(β3);
overall selectivity was determined as factor A) multiplied by factor B)
Membrane preparations containing human β1-, β2- or β3-adrenergic receptors were purchased from Euroscreen.
Determination of IC50 deployed a competition binding experiment where an unlabeled test compound competes with the radioligand for the receptor's binding site.
For competition binding experiments 0.1 μg/μL β3 membranes were pre-incubated with the respective compounds at r.t. for 10 minutes. The binding buffer consisted of 25 mM Hepes, 1 mM EDTA, 0.5% BSA pH 7.4. All incubation steps were done in a 96 well Masterblock PP/1 mL (Greiner), the total assay volume was 100 μL.
The reaction mixtures were transferred to a 96 well UnifilterGF/B filter plate (Millipore), pre-soaked in 0.5% BSA, using the PerkinElmer filtermate. Each well was washed with 8×1 mL ice cold binding buffer supplemented with 0.5M NaCl. The GF/B filter plates were dried for 5 min on the filtermate. To each well, 50 μL OptiPhase scintillation cocktail (PerkinElmer) was added and incubated at r.t. for 10 min.
Bound radioactivity was quantified in a Wallac-Microbeta plate reader (PerkinElmer). Each well was counted for 2 min in top-count mode.
For competition binding experiments 0.25 μg/well β1 or 0.5 μg/well β2 membranes were pre-incubated with the respective compounds at r.t. for 10 minutes. […] All incubation steps were done in a 96 well Masterblock PP/1 mL (Greiner), the total assay volume was 250 μL.
The reaction mixtures were transferred to a 96 well UnifilterGF/B filter plate (Millipore), pre-soaked in 0.5% PEI, using the PerkinElmer filtermate, Each well was wash with 8×1 mL ice cold binding buffer. The GF/B filter plates were dried for 5 min on the filtermate. To each well 50 μL OptiPhase scintillation cocktail (PerkinElmer) was added and incubated at r.t. for 10 min.
Bound radioactivity was quantified in a Wallac-Microbeta plate reader (PerkinElmer). Each well was counted for 2 min in top-count mode

T1 sequence (P13945 whole entry): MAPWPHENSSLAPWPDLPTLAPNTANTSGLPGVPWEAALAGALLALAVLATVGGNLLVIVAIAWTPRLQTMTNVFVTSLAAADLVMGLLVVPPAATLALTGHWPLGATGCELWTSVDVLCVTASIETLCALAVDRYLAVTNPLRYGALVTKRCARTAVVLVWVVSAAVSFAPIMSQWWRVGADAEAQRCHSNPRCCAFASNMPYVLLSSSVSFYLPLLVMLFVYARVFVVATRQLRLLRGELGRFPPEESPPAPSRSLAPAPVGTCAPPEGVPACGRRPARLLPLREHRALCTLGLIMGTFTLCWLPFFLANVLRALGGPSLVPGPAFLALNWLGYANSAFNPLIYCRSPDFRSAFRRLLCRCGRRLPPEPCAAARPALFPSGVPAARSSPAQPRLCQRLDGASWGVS

On to `Cc1nc(N2CCC(NCC(O)COc3ccc(O)cc3)CC2)c2ccsc2n1` (stereo not drawn) [Example 5, 4-(2-hydroxy-3-(1-(2-methylthieno[2,3-d]pyrimidin-4-yl)piperidin-4-ylamino)propoxy)phenol], for which, in experiment [1], the EC50 fell in the range of 11 to 100 nM. For the same compound, in experiment [2], the “selectivity [A x B]” value is given as “++ (A×B=101-1000)”.

As to `Cc1cc(C)nc(N2CCC(NCC(O)COc3ccc(O)cc3)CC2)n1` (stereo not drawn) [Example 8, 4-(3-(1-(4,6-dimethylpyrimidin-2-yl)piperidin-4-ylamino)-2-hydroxypropoxy)phenol], the EC50 in experiment [1] lay in the range of 11 to 100 nM. The “selectivity [A x B]” value in experiment [2] was 0 (A×B<10).

Turning to `CN(CC(O)COc1ccc(O)cc1)C1CCN(c2ncnc3scc(-c4ccc(F)cc4)c23)CC1` (stereo not drawn) [Example 11, 4-(3-((1-(5-(4-fluorophenyl)thieno[2,3-d]pyrimidin-4-yl)piperidin-4-yl)(methyl)amino)-2-hydroxypropoxy)phenol], the EC50 in experiment [1] is greater than 100 nM. For the same compound, in experiment [2], the “selectivity [A x B]” value is 0 (A×B<10).

`CCOC(=O)c1cc(OCC(O)CNC2CCN(c3ncnc4scc(-c5ccccc5)c34)CC2)ccc1O` (stereo not drawn) [Example 12]: the concentration for a half-maximal effect (EC50) in experiment [1] is greater than 100 nM. Further, the “selectivity [A x B]” value in experiment [2] is listed as 0 (A×B<10).

For the compound `OCc1cc(OCC(O)CNC2CCN(C3=NCNc4scc(-c5ccccc5)c43)CC2)ccc1O` (stereo not drawn) [Example 14, 4-(2-hydroxy-3-(1-(5-phenyl-1,2-dihydrothieno[2,3-d]pyrimidin-4-yl)piperidin-4-ylamino)propoxy)-2-(hydroxymethyl)phenol], in experiment [1], the EC50 is 0.01 to 0.99 nM. Further, in experiment [2], the “selectivity [A x B]” value is given as “+++ (A×B>1000)”.

As for `CCOC(=O)c1cc(OCC(O)CNC2CCN(c3ncnc4scc(C)c34)CC2)ccc1O` (stereo not drawn) [Example 17, ethyl 2-hydroxy-5-(2-hydroxy-3-(1-(5-methylthieno[2,3-d]pyrimidin-4-yl)piperidin-4-ylamino)propoxy)benzoate], the EC50 in experiment [1] is greater than 100 nM. In experiment [2], the “selectivity [A x B]” value is 0 (A×B<10).

For the compound `Cc1nc(N2CCC(NCC(O)COc3ccc(O)c(CO)c3)CC2)c2ccsc2n1` (stereo not drawn) [Example 19, 4-(2-hydroxy-3-(1-(2-methylthieno[2,3-d]pyrimidin-4-yl)piperidin-4-ylamino)propoxy)-2-(hydroxymethyl)phenol], in experiment [1], the 50% effective concentration (EC50) fell in the range of 1 to 10 nM. Also, the “selectivity [A x B]” value in experiment [2] was “+++ (A×B>1000)”.

Turning to `CCOC(=O)c1cc(OCC(O)CNC2CCN(c3ncnc4sc(-c5ccccc5)c(C)c34)CC2)ccc1O` (stereo not drawn) [Example 20, ethyl 2-hydroxy-5-(2-hydroxy-3-(1-(5-methyl-6-phenylthieno[2,3-d]pyrimidin-4-yl)piperidin-4-ylamino)propoxy)benzoate], the EC50 in experiment [1] is greater than 100 nM. Moreover, the “selectivity [A x B]” value in experiment [2] is on record as 0 (A×B<10).

With `CCOC(=O)c1cc(OCC(O)CNC2CCN(c3ncnc4ccsc34)CC2)ccc1O` (stereo not drawn) [Example 22, ethyl 2-hydroxy-5-(2-hydroxy-3-(1-(thieno[3,2-d]pyrimidin-4-yl)piperidin-4-ylamino)propoxy)benzoate], the EC50 in experiment [1] is greater than 100 nM. In addition, the “selectivity [A x B]” value in experiment [2] is 0 (A×B<10).

Consider `Cc1cc(C)nc(N2CCC(NCC(O)COc3ccc(O)c(CO)c3)CC2)n1` (stereo not drawn) [Example 24, 4-(3-(1-(4,6-dimethylpyrimidin-2-yl)piperidin-4-ylamino)-2-hydroxypropoxy)-2-(hydroxymethyl)phenol], for which the EC50 in experiment [1] was 1 to 10 nM. In addition, the “selectivity [A x B]” value in experiment [2] was “+++ (A×B>1000)”.

Regarding `CCOC(=O)c1cc(OCC(O)CNC2CCN(c3ncnc4scc(-c5cccs5)c34)CC2)ccc1O` (stereo not drawn) [Example 25, ethyl 2-hydroxy-5-(2-hydroxy-3-(1-(5-(thiophen-2-yl)thieno[2,3-d]pyrimidin-4-yl)piperidin-4-ylamino)propoxy)benzoate], in experiment [1], the EC50 is greater than 100 nM. Moreover, in experiment [2], the “selectivity [A x B]” value is 0 (A×B<10).

Take `COC(=O)c1ccc(OCC(O)CNC2CCN(c3ncnc4scc(-c5ccccc5)c34)CC2)cc1O` (stereo not drawn) [Example 28, methyl 2-hydroxy-4-(2-hydroxy-3-(1-(5-phenylthieno[2,3-d]pyrimidin-4-yl)piperidin-4-ylamino)propoxy)benzoate]: in experiment [1], the EC50 is greater than 100 nM. Also, in experiment [2], the “selectivity [A x B]” value is recorded as 0 (A×B<10).

Turning to `CCOC(=O)c1cc(O)ccc1OCC(O)CNC1CCN(c2ncnc3scc(-c4ccccc4)c23)CC1` (stereo not drawn) [Example 32, ethyl 5-hydroxy-2-(2-hydroxy-3-(1-(5-phenylthieno[2,3-d]pyrimidin-4-yl)piperidin-4-ylamino)propoxy)benzoate], the EC50 in experiment [1] was in the range of 1 to 10 nM. Further, in experiment [2], the “selectivity [A x B]” value was “+ (A×B=10-100)”.

On to `COC(=O)c1ccc(O)cc1OCC(O)CNC1CCN(c2ncnc3scc(-c4ccccc4)c23)CC1` (stereo not drawn) [Example 34, methyl 4-hydroxy-2-(2-hydroxy-3-(1-(5-phenylthieno[2,3-d]pyrimidin-4-yl)piperidin-4-ylamino)propoxy)benzoate], for which the EC50 in experiment [1] was greater than 100 nM. Further, the “selectivity [A x B]” value in experiment [2] is listed as 0 (A×B<10).

For `Cc1csc2ncnc(N3CCC(NCC(O)COc4cccc(CO)c4)CC3)c12` (stereo not drawn) [Example 37, 1-(3-(hydroxymethyl)phenoxy)-3-(1-(5-methylthieno[2,3-d]pyrimidin-4-yl)piperidin-4-ylamino)propan-2-ol], the EC50 in experiment [1] fell in the range of 11 to 100 nM. The “selectivity [A x B]” value in experiment [2] is reported as 0 (A×B<10).

With `Cc1nc(N2CCC(NCC(O)COc3cccc(CO)c3)CC2)c2ccsc2n1` (stereo not drawn) [Example 38, 1-(3-(hydroxymethyl)phenoxy)-3-(1-(2-methylthieno[2,3-d]pyrimidin-4-yl)piperidin-4-ylamino)propan-2-ol], the EC50 in experiment [1] was greater than 100 nM. Moreover, in experiment [2], the “selectivity [A x B]” value is given as 0 (A×B<10).

For the compound `Cc1c(-c2ccccc2)sc2ncnc(N3CCC(NCC(O)COc4cccc(CO)c4)CC3)c12` (stereo not drawn) [Example 39, 1-(3-(hydroxymethyl)phenoxy)-3-(1-(5-methyl-6-phenylthieno[2,3-d]pyrimidin-4-yl)piperidin-4-ylamino)propan-2-ol], in experiment [1], the EC50 was greater than 100 nM. For the same compound, in experiment [2], the “selectivity [A x B]” value is recorded as 0 (A×B<10).

`OCc1cccc(OCC(O)CNC2CCN(c3ncnc4scc(-c5ccc(F)cc5)c34)CC2)c1` (stereo not drawn) [Example 40, 1-(1-(5-(4-fluorophenyl)thieno[2,3-d]pyrimidin-4-yl)piperidin-4-ylamino)-3-(3-(hydroxymethyl)phenoxy)propan-2-ol]: the EC50 in experiment [1] was 11 to 100 nM. In addition, the “selectivity [A x B]” value in experiment [2] is “+ (A×B=10-100)”.

Turning to `CN(CC(O)COc1cccc(CO)c1)C1CCN(c2ncnc3scc(-c4ccccc4)c23)CC1` (stereo not drawn) [Example 41, 1-(3-(hydroxymethyl)phenoxy)-3-(methyl(1-(5-phenylthieno[2,3-d]pyrimidin-4-yl)piperidin-4-yl)amino)propan-2-ol], the EC50 in experiment [1] is greater than 100 nM. Besides, the “selectivity [A x B]” value in experiment [2] is “+ (A×B=10-100)”.

Consider `Cc1c(-c2ccccc2)sc2ncnc(N3CCC(N(C)CC(O)COc4cccc(CO)c4)CC3)c12` (stereo not drawn) [Example 42, 1-(3-(hydroxymethyl)phenoxy)-3-(methyl(1-(5-methyl-6-phenylthieno[2,3-d]pyrimidin-4-yl)piperidin-4-yl)amino)propan-2-ol], for which, in experiment [1], the concentration for a half-maximal effect (EC50) was greater than 100 nM. The “selectivity [A x B]” value in experiment [2] is listed as 0 (A×B<10).

`OCc1ccc(OCC(O)CNC2CCN(c3ncnc4scc(-c5ccc(F)cc5)c34)CC2)cc1` (stereo not drawn) [Example 44, 1-(1-(5-(4-fluorophenyl)thieno[2,3-d]pyrimidin-4-yl)piperidin-4-ylamino)-3-(4-(hydroxymethyl)phenoxy)propan-2-ol]: the EC50 in experiment [1] is greater than 100 nM. For the same compound, in experiment [2], the “selectivity [A x B]” value was “+ (A×B=10-100)”.

For the origin of these results see US8207174B2, “Aryloxypropanolamines, methods of preparation therof and use of aryloxypropanolamines as medicaments” (4SC AG, priority 2007, dated 2012).
